The test system of the assay is C2C12 cells. Description: Annexin V-Fluorescein isothiocyanate binding assay (apoptosis). Type of assay: cell-based, Mus musculus mouse. The source says: This technique permits to determine whether a cell is at early or late apoptosis or necrotic state. In early apoptosis, Phosphatidylserine (PS) is translocated to the outer membrane allowing PS-annexin V-Fluorescein Isothiocyanate (FITC) binding. In late apoptosis, as well as in necrotic processes, cell membranes lose their integrity allowing PI to access the nucleus and bind the DNA bases. Next, by using FACS analysis one can determine PI and annexin V-FITC staining accumulation to differentiate non-apoptotic cells (PI– and annexin V–) from early apoptotic (PI− and annexin V+) and necrotic or late apoptotic (PI+) cells (Cortés et al., [2012]). The same amount of C2C12 cells mentioned for cell cycle assay was treated with PPD as previously described. Cells were then collected and resuspended in binding buffer (10 mM Hepes/NaOH, pH7.4, 140 mM NaCl, 2.5 mM CaCl2). Annexin V-FITC conjugate (1 μg/ml) was added and incubated for 30 min at room temperature in the dark. Just before FACS analysis [Bender medSystems (Innogenetics) human Annexin V-FITC Kit cat No. BMS306FI], cells were stained with 1 mg/ml PI solution. In each experiment ~20 × 10^3 cells per condition were analyzed and the experiment was performed five times.

The values below come from paper PMC5338303, “Unveiling the Metabolic Changes on Muscle Cell Metabolism Underlying p-Phenylenediamine Toxicity” (Frontiers in Molecular Biosciences, 2017).

Structures are written as SMILES.

Where the note is “PPD at IC50, 24 h”, `Nc1ccc(N)cc1` [PPD, p-phenylenediamine] displayed an early apoptosis of 34.7% and a late apoptosis of 18.8%. Where the note is “PPD at IC80, 24 h”, the early apoptosis was determined as 20.1% and the late apoptosis turned out to be 23.9%.
